Test results: patent publication US11419335B2, “N-arylated analogues and uses thereof” (University of Florida Research Foundation, Incorporated, priority 2016, dated 2022)
Where two headings read alike, the source gives them in different places. Marks after values point to notes of the source that are not given here.

Legend:
[1] = system: methicillin-resistant Staphylococcus aureus MRSA-2 (clinical isolate); assay: MIC broth microdilution, MRSA-2; assay type: cell-based; conditions: for MIC: read-out: MIC MRSA-2; for MRSA-2 MIC: Table 2A
Method in brief: (§1)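 Following CLSI guidance, MICs come from broth microdilution in Luria Broth over 0.10 to 100 μM, with about 10^5 cells per well incubated 16 to 18 hours at 37° C.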

[2] = system: methicillin-resistant Staphylococcus epidermidis (MRSE strain ATCC 35984); assay: MIC broth microdilution, MRSE 35984; assay type: cell-based; conditions: for MIC S. epidermidis MRSE 35984: Table 1A
Method in brief: as §1

[3] = system: vancomycin-resistant Enterococcus faecium (VRE strain ATCC 700221); assay: MIC broth microdilution, VRE 700221; assay type: cell-based; conditions: for MIC E. faecium VRE 700221: Table 1A
Method in brief: as §1

[4] = system: Acinetobacter baumannii (ATCC 1794); assay: MIC broth microdilution, A. baumannii 1794; assay type: cell-based; conditions: for MIC A. baumannii 1794: Table 1A, in µM; for MIC A. bau. 1794: Table 4
Method in brief: as §1

[5] = system: Pseudomonas aeruginosa (PAO1); assay: MIC broth microdilution, PAO1; assay type: cell-based
Method in brief: as §1

[6] = system: methicillin-sensitive Staphylococcus aureus ATCC 29213; assay: MIC broth microdilution, S. aureus 29213; assay type: cell-based
Method in brief: (§2)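 Following CLSI, each compound is tested across 0.10–100 μM by two-fold dilution in Luria Broth against ~10^5 freshly grown log-phase cells. MIC is supported by OD600 and reported from three or more independent experiments.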

[7] = system: MRSA-1 (clinical isolate); assay: MIC broth microdilution, MRSA-1; assay type: cell-based, Staphylococcus aureus
Protocol: (§3) The minimum inhibitory concentration (MIC) for each tested compound was determined by the broth microdilution method as recommended by the Clinical and Laboratory Standards Institute (CLSI). In a 96-well plate, eleven two-fold serial dilutions of each compound were made in a final volume of 100 μL Luria Broth. Each well was inoculated with ˜10^5 bacterial cells at the initial time of incubation, prepared from a fresh log phase culture (OD600 of 0.5 to 1.0 depending on bacterial strain). […] (MIC values were supported by spectrophotometric readings at OD600). DMSO served as our vehicle and negative control in each microdilution MIC assay. DMSO was serially diluted with a top concentration of 1% v/v.
(§4) Each well was inoculated with ˜10^5 bacterial cells at the initial time of incubation, prepared from a fresh log phase culture (OD600 of 0.5 to 1.0 depending on bacterial strain). […] The concentration range tested for each compound during this study was 0.10 to 100 μM. DMSO served as our vehicle and negative control in each microdilution MIC assay. DMSO was serially diluted with a top concentration of 1% v/v. All MIC values were obtained from a minimum of three independent experiments.

[8] = system: SA-129 (clinical isolate); assay: MIC broth microdilution, SA-129; assay type: cell-based, Staphylococcus aureus
Protocol: as §3, §4

[9] = system: SA-147 (clinical isolate); assay: MIC broth microdilution, SA-147; assay type: cell-based, Staphylococcus aureus
Protocol: as §3, §4

[10] = system: SA-138 (clinical isolate); assay: MIC broth microdilution, SA-138; assay type: cell-based, Staphylococcus aureus
Protocol: as §3, §4

[11] = system: SA-156 (clinical isolate); assay: MIC broth microdilution, SA-156; assay type: cell-based, Staphylococcus aureus
Protocol: as §3, §4

MRSA BAA-44 = assay: MIC broth microdilution, MRSA BAA-44; assay type: cell-based, Staphylococcus aureus
Protocol: as §3, §4

[12] = system: human red blood cells (hRBC); assay: Hemolysis of red blood cells; assay type: cell-based
Method in brief: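 hRBCs (2% suspension) exposed to compounds at 0.2–200 μM (ten-point dose-response) for 1 h at 37 °C; after centrifugation, haemoglobin release read as supernatant OD at 405 nm. DMSO set as 0% and Triton X as 100% haemolysis; HC50 from dose-response curves, three independent experiments.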

MRSA BAA-1707 = assay: MIC broth microdilution, MRSA BAA-1707; assay type: cell-based, Staphylococcus aureus; conditions: for MIC MRSA 1707: Table 4
Method in brief: as §2

SMILES | MIC MRSA-2 ([1]; Table 1A) | MRSA-2 MIC [1] | MIC ([1]; Table 3) | MIC MRSA-2 ([1]; Table 4) | MIC S. epidermidis MRSE 35984 [2] | MIC MRSE 35984 ([2]; Table 4) | MIC E. faecium VRE 700221 [3] | MIC VRE 700221 ([3]; Table 4) | MIC A. baumannii 1794 [4] | MIC A. bau. 1794 [4] | MIC PAO1 ([5]; Table 1A) | MIC PAO1 ([5]; Table 4) | MIC MRSA-1 ([7]; Table 3) | MIC ([9]; Table 1B) | MIC ([9]; Table 3) | MIC SA-138 ([10]; Table 1B) | MIC SA-138 ([10]; Table 3) | MIC SA-156 ([11]; Table 1B) | MIC SA-156 ([11]; Table 3) | MIC MRSA BAA-44 (MRSA BAA-44; Table 1B) | other results
CCCCCCCCCCCC[N+](C)(C)CC[N+](C)(C)CC[N+](C)(C)CCCCCCCCCCCC [QAC-10, reference compound] | 3.13 µM | 2.35^a μM | 3.13 µM | 3.13 µM | 2.35^a | 2.35a micromolar | 2.35^a | 2.35a micromolar | 6.25 | 6.25 µM | 9.38^a | 9.38a micromolar | 4.69^a μM | 3.13 µM | 3.13 µM | 2.35^a μM | 2.35^a μM | 2.35^a μM | 2.35^a μM | 2.35^a μM | MIC ([1]; Table 1): 3.13 µM; MIC MRSA-2 ([1]; Table 1B): 2.35^a μM; MIC MRSE 35984 ([2]; Table 1): 2.35^a μM; MRSE 35984 MIC ([2]; Table 2): 2.35^a μM; MRSE 35984 MIC ([2]; Table 2A): 2.35^a μM; MIC VRE 700221 ([3]; Table 1): 2.35^a μM; VRE 700221 MIC ([3]; Table 2): 2.35^a μM; MIC against multidrug-resistant A. baumannii [4]: 6.25 µM; MIC ([4]; Table 1, read-out: MIC A. baumannii 1794): 6.25 µM; MIC against P. aeruginosa [5]: 9.38 µM; MIC PAO1 ([5]; Table 1): 9.38^a μM; MIC S. aureus 29213 ([6]; Table 1B): 4.69^a μM; MIC S. aureus 29213 ([6]; Table 3): 4.69^a μM; MIC ([7]; Table 1B): 3.13 µM; MIC SA-129 ([8]; Table 1B): 2.35^a μM; MIC SA-129 ([8]; Table 3): 2.35^a μM; MIC MRSA BAA-44 (MRSA BAA-44; Table 3): 2.35^a μM; HC50 [12]: 7.92 µM; hemolytic activity [12]: potent hemolytic activities
CCCCCCCCCCCCCCCC[N+](C)(C)Cc1ccccc1.[Cl-] [BAC-16, reference compound] | – | – | – | 1.56 µM | – | 1.56 µM | – | 3.13 µM | – | 6.25 µM | – | >100 µM | – | – | – | – | – | – | – | – | MIC MRSA 1707 (MRSA BAA-1707): 1.56 µM; RBC HC50 [12]: 21.8 µM
CCCCCCCCCCCCCCCCn1cc(-c2ccccc2)[n+](C)n1.[I-] [Compound 30] | 3.13 µM | 3.13 µM | 6.25 µM | 3.13 µM | 1.56 µM | 1.56 µM | 3.13 µM | 3.13 µM | 12.5 | 12.5 µM | > 100 µM | >100 µM | 4.69^a μM | 1.56 µM | 1.56 µM | 2.35^a μM | 2.35^a μM | 2.35^s μM | 2.35^a μM | 4.69^a μM | MIC ([1]; Table 1B): 6.25 µM; MIC (MRSA BAA-1707; Table 1B, read-out: MIC MRSA BAA-1707): 3.13 µM; MIC (MRSA BAA-1707; Table 2A, read-out: MRSA BAA-1707 MIC): 3.13 µM; MIC (MRSA BAA-1707; Table 3, read-out: MIC MRSA BAA-1707): 3.13 µM; MIC MRSA 1707 (MRSA BAA-1707): 3.13 µM; MIC ([2]; Table 2A, read-out: MRSE 35984 MIC): 1.56 µM; VRE MIC ([3]; Table 2A): 3.13 µM; MIC ([6]; Table 1B): 3.13 µM; MIC ([6]; Table 3): 3.13 µM; MIC MRSA-1 ([7]; Table 1B): 4.69^a μM; MIC ([8]; Table 1B): 1.56 µM; MIC ([8]; Table 3): 1.56 µM; MIC MRSA BAA-44 (MRSA BAA-44; Table 3): 4.69^a μM; HC50 ([12]; Table 1A): 12.6 µM; RBC HC50 ([12]; Table 4, concentration required to lyse 50% of red blood cells): 12.6 µM
